Measured values as given in US10307357B2, “Prebiotic oral care compositions containing an alkyl glycoside” (COLGATE-PALMOLIVE COMPANY, priority 2013, dated 2019).

Columns and labels:
Assay in all cases: Twenty-four hour biofilm growth (crystal violet)
Type in all cases: cell-based
Conditions in all cases: 24 hours, control = 1
[1] = system: Tannerella forsythia
Procedure: (§1) The increase in biofilm formation of the tested bacteria in response to selected glycosides (β-methyl-D-galactoside and α-methyl-D-galactoside) was investigated by setting up biofilm growth assays in a nutritionally rich medium (brain heart infusion broth (BHI), Oxoid), over 24 hours. Late exponential growth phase liquid cultures were prepared by transferring the respective bacterium from blood agar plates to BHI and overnight incubation at 37° C. in an anaerobic atmosphere for A. viscosus, V. parvula, P. gingivalis, P. intermedia, T. forsythia, A. naeslundii, and C. sputigena, and in a 5% CO2 environment for S. salivarius, S. sanguinis, S. mitis, A. actinomycetemcomitans, S. mutans, and S. gordonii. Overnight cultures were transferred to BHI and adjusted to a concentration of 1×10^7 CFU/ml by measuring the optical density at 600 nm (OD600) (BioRad SmartSpec 3000). For each strain, 200 μl of the bacterial suspension was added to a 96-well plate containing 20 μl of the respective glycosides. Final concentrations of the glycosides were set to 5, 10, 20 and 25 μmol/ml. […] Additionally, for each bacterium tested, a background control, to correct for background staining, was added. This background control contained the bacterium tested and 0.03 weight % chlorhexidine, as an antiseptic. Plates were incubated as previously described. After 24 hrs the supernatant was removed from the wells of the plates. The wells were washed twice with 1×100 μL PBS (phosphate buffered saline), fixed for 20 minutes with 96% vol. ethanol (96% vol. solution in water) and the biofilm retained at the bottom of the wells was stained with 1 weight % crystal violet (1 weight % solution in water). The bound dye was dissolved with 5% vol. acetic acid (5% vol. solution in water). Quantification of the stained biofilm was performed by measuring the absorbance at 630 nm using a Multiskan Ascent microplate reader (Thermo Scientific). […] The experiment was carried out on three different days (thus providing 3 biological replicas) and each day the experiment was carried out in quadruple (thus providing 4 technical replicas) for each combination of bacterium with glycoside and for each control. For each day and for each combination, the average (mean) of the values obtained (as detailed above) for the four technical replicas was calculated to provide a single value for each combination on each day. The values shown in Tables 7 to 8, below, are the average (mean) of the three single values obtained for each combination of bacterium with glycoside.

[2] = system: Aggregatibacter actinomycetemcomitans
Procedure: as §1

[3] = system: Streptococcus gordonii
Procedure: as §1

[4] = system: Streptococcus mutans
Procedure: as §1

[5] = system: Actinomyces viscosus
Procedure: as §1

[6] = system: Streptococcus mitis
Procedure: as §1

[7] = system: Streptococcus sanguinis
Procedure: as §1

[8] = system: Prevotella intermedia
Procedure: as §1

[9] = system: Porphyromonas gingivalis
Procedure: as §1

[10] = system: Capnocytophaga sputigena
Procedure: as §1

[11] = system: Veillonella parvula
Procedure: as §1

[12] = system: Actinomyces naeslundii
Procedure: as §1

[13] = system: Streptococcus salivarius
Procedure: as §1

CO[C@H]1O[C@H](CO)[C@H](O)[C@H](O)[C@H]1O [α-methyl-D-galactoside]
biofilm OD 630 nm divided by control (biofilm growth) ([1]; 5 μmol/ml): 0.7627
biofilm OD 630 nm divided by control (biofilm growth) ([1]; 10 μmol/ml): 1.0506
biofilm OD 630 nm divided by control (biofilm growth) ([1]; 20 μmol/ml): 0.8302
biofilm OD 630 nm divided by control (biofilm growth) ([1]; 25 μmol/ml): 1.0929
biofilm OD 630 nm divided by control (biofilm growth) ([2]; 5 μmol/ml): 0.9911
biofilm OD 630 nm divided by control (biofilm growth) ([2]; 10 μmol/ml): 0.9943
biofilm OD 630 nm divided by control (biofilm growth) ([2]; 20 μmol/ml): 1.1846
biofilm OD 630 nm divided by control (biofilm growth) ([2]; 25 μmol/ml): 1.1720
biofilm OD 630 nm divided by control (biofilm growth) ([3]; 5 μmol/ml): 0.6940
biofilm OD 630 nm divided by control (biofilm growth) ([3]; 10 μmol/ml): 0.6458
biofilm OD 630 nm divided by control (biofilm growth) ([3]; 20 μmol/ml): 0.6465
biofilm OD 630 nm divided by control (biofilm growth) ([3]; 25 μmol/ml): 0.6859
biofilm OD 630 nm divided by control (biofilm growth) ([4]; 5 μmol/ml): 1.2046
biofilm OD 630 nm divided by control (biofilm growth) ([4]; 10 μmol/ml): 1.3284
biofilm OD 630 nm divided by control (biofilm growth) ([4]; 20 μmol/ml): 1.5452
biofilm OD 630 nm divided by control (biofilm growth) ([4]; 25 μmol/ml): 1.7240
biofilm OD 630 nm divided by control (biofilm growth) ([5]; 5 μmol/ml): 0.7268
biofilm OD 630 nm divided by control (biofilm growth) ([5]; 10 μmol/ml): 0.7293
biofilm OD 630 nm divided by control (biofilm growth) ([5]; 20 μmol/ml): 0.7490
biofilm OD 630 nm divided by control (biofilm growth) ([5]; 25 μmol/ml): 0.6777
biofilm OD 630 nm divided by control (biofilm growth) ([6]; 5 μmol/ml): 1.4898
biofilm OD 630 nm divided by control (biofilm growth) ([6]; 10 μmol/ml): 1.2441
biofilm OD 630 nm divided by control (biofilm growth) ([6]; 20 μmol/ml): 1.3917
biofilm OD 630 nm divided by control (biofilm growth) ([6]; 25 μmol/ml): 1.2800
biofilm OD 630 nm divided by control (biofilm growth) ([7]; 5 μmol/ml): 2.6029
biofilm OD 630 nm divided by control (biofilm growth) ([7]; 10 μmol/ml): 2.4812
biofilm OD 630 nm divided by control (biofilm growth) ([7]; 20 μmol/ml): 2.1593
biofilm OD 630 nm divided by control (biofilm growth) ([7]; 25 μmol/ml): 2.4656
biofilm OD 630 nm divided by control (biofilm growth) ([8]; 5 μmol/ml): 1.1518
biofilm OD 630 nm divided by control (biofilm growth) ([8]; 10 μmol/ml): 1.1589
biofilm OD 630 nm divided by control (biofilm growth) ([8]; 20 μmol/ml): 1.0758
biofilm OD 630 nm divided by control (biofilm growth) ([8]; 25 μmol/ml): 0.9774
biofilm OD 630 nm divided by control (biofilm growth) ([9]; 5 μmol/ml): 0.9047
biofilm OD 630 nm divided by control (biofilm growth) ([9]; 10 μmol/ml): 0.9772
biofilm OD 630 nm divided by control (biofilm growth) ([9]; 20 μmol/ml): 0.9820
biofilm OD 630 nm divided by control (biofilm growth) ([9]; 25 μmol/ml): 1.0029
biofilm OD 630 nm divided by control (biofilm growth) ([10]; 5 μmol/ml): 0.9689
biofilm OD 630 nm divided by control (biofilm growth) ([10]; 10 μmol/ml): 1.0025
biofilm OD 630 nm divided by control (biofilm growth) ([10]; 20 μmol/ml): 1.1142
biofilm OD 630 nm divided by control (biofilm growth) ([10]; 25 μmol/ml): 0.9669
biofilm OD 630 nm divided by control (biofilm growth) ([11]; 5 μmol/ml): 1.0323
biofilm OD 630 nm divided by control (biofilm growth) ([11]; 10 μmol/ml): 1.0615
biofilm OD 630 nm divided by control (biofilm growth) ([11]; 20 μmol/ml): 1.0577
biofilm OD 630 nm divided by control (biofilm growth) ([11]; 25 μmol/ml): 1.1040
biofilm OD 630 nm divided by control (biofilm growth) ([12]; 5 μmol/ml): 0.9655
biofilm OD 630 nm divided by control (biofilm growth) ([12]; 10 μmol/ml): 0.9764
biofilm OD 630 nm divided by control (biofilm growth) ([12]; 20 μmol/ml): 0.9692
biofilm OD 630 nm divided by control (biofilm growth) ([12]; 25 μmol/ml): 0.9789
biofilm OD 630 nm divided by control (biofilm growth) ([13]; 5 μmol/ml): 0.9165
biofilm OD 630 nm divided by control (biofilm growth) ([13]; 10 μmol/ml): 0.9115
biofilm OD 630 nm divided by control (biofilm growth) ([13]; 20 μmol/ml): 1.1202
biofilm OD 630 nm divided by control (biofilm growth) ([13]; 25 μmol/ml): 0.9258

CO[C@@H]1O[C@H](CO)[C@H](O)[C@H](O)[C@H]1O [β-methyl-D-galactoside]
biofilm OD 630 nm divided by control (biofilm growth) ([1]; 5 μmol/ml): 0.7494
biofilm OD 630 nm divided by control (biofilm growth) ([1]; 10 μmol/ml): 0.6979
biofilm OD 630 nm divided by control (biofilm growth) ([1]; 20 μmol/ml): 0.9049
biofilm OD 630 nm divided by control (biofilm growth) ([1]; 25 μmol/ml): 0.8051
biofilm OD 630 nm divided by control (biofilm growth) ([2]; 5 μmol/ml): 1.1108
biofilm OD 630 nm divided by control (biofilm growth) ([2]; 10 μmol/ml): 1.0188
biofilm OD 630 nm divided by control (biofilm growth) ([2]; 20 μmol/ml): 1.0927
biofilm OD 630 nm divided by control (biofilm growth) ([2]; 25 μmol/ml): 1.0212
biofilm OD 630 nm divided by control (biofilm growth) ([3]; 5 μmol/ml): 0.7601
biofilm OD 630 nm divided by control (biofilm growth) ([3]; 10 μmol/ml): 0.6695
biofilm OD 630 nm divided by control (biofilm growth) ([3]; 20 μmol/ml): 0.6763
biofilm OD 630 nm divided by control (biofilm growth) ([3]; 25 μmol/ml): 0.6429
biofilm OD 630 nm divided by control (biofilm growth) ([4]; 5 μmol/ml): 1.3512
biofilm OD 630 nm divided by control (biofilm growth) ([4]; 10 μmol/ml): 1.0007
biofilm OD 630 nm divided by control (biofilm growth) ([4]; 20 μmol/ml): 1.1097
biofilm OD 630 nm divided by control (biofilm growth) ([4]; 25 μmol/ml): 1.2791
biofilm OD 630 nm divided by control (biofilm growth) ([5]; 5 μmol/ml): 0.5917
biofilm OD 630 nm divided by control (biofilm growth) ([5]; 10 μmol/ml): 0.5767
biofilm OD 630 nm divided by control (biofilm growth) ([5]; 20 μmol/ml): 0.6104
biofilm OD 630 nm divided by control (biofilm growth) ([5]; 25 μmol/ml): 0.6322
biofilm OD 630 nm divided by control (biofilm growth) ([6]; 5 μmol/ml): 1.3127
biofilm OD 630 nm divided by control (biofilm growth) ([6]; 10 μmol/ml): 1.1242
biofilm OD 630 nm divided by control (biofilm growth) ([6]; 20 μmol/ml): 1.1524
biofilm OD 630 nm divided by control (biofilm growth) ([6]; 25 μmol/ml): 1.1692
biofilm OD 630 nm divided by control (biofilm growth) ([7]; 5 μmol/ml): 1.8586
biofilm OD 630 nm divided by control (biofilm growth) ([7]; 10 μmol/ml): 2.3853
biofilm OD 630 nm divided by control (biofilm growth) ([7]; 20 μmol/ml): 2.3700
biofilm OD 630 nm divided by control (biofilm growth) ([7]; 25 μmol/ml): 2.4211
biofilm OD 630 nm divided by control (biofilm growth) ([8]; 5 μmol/ml): 1.1201
biofilm OD 630 nm divided by control (biofilm growth) ([8]; 10 μmol/ml): 1.0925
biofilm OD 630 nm divided by control (biofilm growth) ([8]; 20 μmol/ml): 1.1229
biofilm OD 630 nm divided by control (biofilm growth) ([8]; 25 μmol/ml): 1.1007
biofilm OD 630 nm divided by control (biofilm growth) ([9]; 5 μmol/ml): 0.9407
biofilm OD 630 nm divided by control (biofilm growth) ([9]; 10 μmol/ml): 0.9326
biofilm OD 630 nm divided by control (biofilm growth) ([9]; 20 μmol/ml): 0.9049
biofilm OD 630 nm divided by control (biofilm growth) ([9]; 25 μmol/ml): 0.9163
biofilm OD 630 nm divided by control (biofilm growth) ([10]; 5 μmol/ml): 0.7253
biofilm OD 630 nm divided by control (biofilm growth) ([10]; 10 μmol/ml): 0.8100
biofilm OD 630 nm divided by control (biofilm growth) ([10]; 20 μmol/ml): 0.8487
biofilm OD 630 nm divided by control (biofilm growth) ([10]; 25 μmol/ml): 0.9428
biofilm OD 630 nm divided by control (biofilm growth) ([11]; 5 μmol/ml): 1.0106
biofilm OD 630 nm divided by control (biofilm growth) ([11]; 10 μmol/ml): 1.0266
biofilm OD 630 nm divided by control (biofilm growth) ([11]; 20 μmol/ml): 1.0191
biofilm OD 630 nm divided by control (biofilm growth) ([11]; 25 μmol/ml): 1.0384
biofilm OD 630 nm divided by control (biofilm growth) ([12]; 5 μmol/ml): 0.9907
biofilm OD 630 nm divided by control (biofilm growth) ([12]; 10 μmol/ml): 0.9316
biofilm OD 630 nm divided by control (biofilm growth) ([12]; 20 μmol/ml): 0.9697
biofilm OD 630 nm divided by control (biofilm growth) ([12]; 25 μmol/ml): 0.9727
biofilm OD 630 nm divided by control (biofilm growth) ([13]; 5 μmol/ml): 3.1530
biofilm OD 630 nm divided by control (biofilm growth) ([13]; 10 μmol/ml): 5.6484
biofilm OD 630 nm divided by control (biofilm growth) ([13]; 20 μmol/ml): 18.9267
biofilm OD 630 nm divided by control (biofilm growth) ([13]; 25 μmol/ml): 20.1333
